Measured values published in patent US20050222182A1, “Stabilized pharmaceutical compositions of halofuginone and other quinazolinone derivatives” (priority 2002, published 2005).
Where two headings read alike, the source gives them in different places.

Assays:
[1] = physchem; format: physicochemical; conditions: aqueous buffer, thermodynamic from solid
Protocol: The solubility of halofuginone in several solvents was first studied. Powder of halofuginone was dissolved in the different solvents, starting from over saturation and followed by dilutions.

[2] = format: physicochemical; conditions: for Ea (degradation activation energy): 1 mg/ml
Protocol: Halofuginone HBr powder was dissolved in acetonitrile and the solution was mixed with 4 volumes ([…]) of borate buffer to yield a […] solution. Buffer solutions at pH 5.5, 6.5, and 7.5 were prepared by mixing various amounts of sodium borate solution (12 g in 240 ml DDW) to boric acid solution (12 g in 240 ml DDW). The solutions were filtered through a 0.2 micron filter into a tightly closed glass vial coated with aluminum foil to protect from light. The solutions (1.25 ml, 1 mg/ml in acetonitrile: buffer 1:4) were kept in temperature controlled incubators at 4, 25, 37 and 60° C. At time of analysis, about 50 μl of the solution was taken and immediately injected to the HPLC.
Halofuginone was determined by HPLC using the following equipment and conditions: • Instrument: HP 1050 with HPCHEM software • Column: C8, Lichospher 60 (5, μm) LichoCART 125-4, Cat. No. 1.50213 (Merck) (similar to Hypersil BDS C8 used by AminoLab) with precolumn Lichospher 100 RP-8, 5 μm, 4×4 mm, Cat. No. 1.50961 (Merck) • Column temp: ambient • Flow rate: isocratic, 1 ml/min Eluant: Acetonitrile: 0.1 M sodium citrate buffer pH3.0 at a 30:70 v/v • Detector: UV 254 nm • Sample volume: 20 μl • Run time: 15 min., halofuginone Rt=8.8 min.; degradation product Rt=11.7 Results:
Analysis: Halofuginone was analyzed by HPLC with UV detector. The retention times for halofuginone and its main degradation product (cis isomer) are 8.8 min and 11.7 min, respectively.
Stability: Halofuginone concentrations were followed for 24 hours. […] The decrease in halofuginone concentrations for the solutions kept at 25° C. and above is shown in FIG. 1 and the rate constants are summarized in Table 1. The degradation activation energies at different pH solutions were estimated from the plot of ln(Kobs) vs. 1/T and are summarized in Table 1. The activation energies were calculated from the slopes of ln(Kobs) vs. 1/T. The activation energies are in the range of 6.57-13.13 Kcal.

[3] = format: physicochemical
Text: A commercially useful solution formulation was developed based on halofuginone dissolved in lactate buffer and the stability data shown in FIGS. 2 and 3. The stability of halofuginone in sodium lactate buffer (4% pH 4) was unaffected by the presence of saline in the final solution.

Compound: O=C(CC1NCCCC1O)Cn1cnc2cc(Br)c(Cl)cc2c1=O (stereo not drawn) [halofuginone-Hbr]
- solubility [1]: ≥ 5000 µg/mL

Compound: O=C(C[C@@H]1NCCC[C@H]1O)Cn1cnc2cc(Br)c(Cl)cc2c1=O (racemic) [halofuginone, 7-bromo-6-chloro-3-[3-(3-hydroxy-2-piperidinyl)-2-oxopropyl]-4(3H)-quinazolinone]
- Ea (degradation activation energy) ([2]; pH 5.5): 13.13 kcal
- Ea (degradation activation energy) ([2]; pH 6.5): 8.38 kcal
- Ea (degradation activation energy) ([2]; pH 7.5): 6.57 kcal
- Slope [ln(Kobs)/1/T] ([2]; pH 5.5): 26,134
- Activation energies (range over pH solutions) ([2]; pH 5.5-7.5): 6.57-13.13 Kcal
- Slope [ln(Kobs)/1/T] ([2]; pH 6.5): 16,685
- Slope [ln(Kobs)/1/T] ([2]; pH 7.5): 13,412
- Stability in lactate buffer pH 4.0 compared to distilled water [3]: higher stability
